Source: patent US12637467B2, “Inhibitor of BTK and mutants thereof” (Newave Pharmaceutical Inc., priority 2019, dated 2026)
“Also recorded” adds a separate entry of the source.

Columns and labels:
WT BTK [1] = molecular target: T1, WT BTK (Homo sapiens, UniProt Q06187); assay: Caliper-based kinase assay, WT BTK; assay type: biochemical; settings: 0.5 nM enzyme, 16 μM ATP, 3 h at room temperature; read-out: WT BTK IC50 (nM) (irreversible inhibition)
Protocol: (§1) The reaction was then terminated with EDTA, final concentration 20 mM and the phosphorylated reaction product was quantified on a Caliper Desktop Profiler (Caliper LabChip 3000).

WT BTK [2] = molecular target: T1, WT BTK; assay: In vitro dialysis assay (irreversibility assay), WT BTK; assay type: biochemical; settings: for Recovery after 24 h dialysis: 0.003 mM compound pre-incubated with 2 nM BTK for 2 hr, dialyzed 24 hr against buffer with 40 mM ATP, BTK activity vs non-dialyzed samples; for Conclusion (WT BTK): reversible or irreversible inhibition after 24 hr dialysis
Protocol: (§2) The compound-enzyme complex was dialyzed against the same buffer supplemented with 40 mM ATP for 24 hr. Cumulative dialysis factor >160,000×. After dialysis, the BTK activity was measured in the presence 40 mM ATP and 1 mM substrate peptide and compared to that in non-dialyzed samples. Assay buffer: 100 mM HEPES, pH7.5; 0.1% BSA, 0.01% Triton-X 100; 5 mM MgCl2; 1 mM DTT.

REC-1 xenograft = REC-1 xenograft model; assay type: in vivo, mice; settings: for Tumor volume: BIDX28
Description: Typically, athymic nude mice (CD-1 nu/nu) or SCID mice are obtained at age 6-8 weeks from vendors and acclimated for a minimum 7-day period. The cancer cells are then implanted into the nude mice. Depending on the specific tumor type, tumors are typically detectable about two weeks following implantation. When tumor sizes reach ˜100-200 mm^3, the animals with appreciable tumor size and shape are randomly assigned into groups of 8 mice each, including one vehicle control group and treatment groups. Dosing varies depending on the purpose and length of each study, which typically proceeds for about 3-4 weeks. Tumor sizes and body weight are typically measured three times per week. In addition to the determination of tumor size changes, the last tumor measurement is used to generate the tumor size change ratio (T/C value), a standard metric developed by the National Cancer Institute for xenograft tumor evaluation. In most cases, % T/C values are calculated using the following formula: % T/C=100×ΔT/ΔC if ΔT>0. When tumor regression occurred (ΔT<0), however, the following formula is used: % T/T0=100×ΔT/T0. Values of <42% are considered significant.

C481S BTK [3] = molecular target: T2, C481S BTK (Homo sapiens, UniProt Q06187, C481S); assay: Reversibility of binding to C481S BTK enzyme; assay type: biochemical; settings: cysteine not available for covalent binding
Protocol: as §2

C481S BTK [4] = molecular target: T2, C481S BTK; assay: Caliper-based kinase assay, C481S BTK; assay type: biochemical; settings: 0.5 nM enzyme, 16 μM ATP, 3 h at room temperature; read-out: C481S BTK IC50 (nM) (reversible inhibition)
Protocol: as §1

[5] = rats, treatment for longer than 7 days; cited from earlier work
[6] = formulations containing GDC-0853, Phase I clinical trials; cited from earlier work
[7] = 10 mg/kg po, day 26 of the study
[8] = 50 mg/kg po, day 28 of the study

T1 sequence (Q06187 whole entry): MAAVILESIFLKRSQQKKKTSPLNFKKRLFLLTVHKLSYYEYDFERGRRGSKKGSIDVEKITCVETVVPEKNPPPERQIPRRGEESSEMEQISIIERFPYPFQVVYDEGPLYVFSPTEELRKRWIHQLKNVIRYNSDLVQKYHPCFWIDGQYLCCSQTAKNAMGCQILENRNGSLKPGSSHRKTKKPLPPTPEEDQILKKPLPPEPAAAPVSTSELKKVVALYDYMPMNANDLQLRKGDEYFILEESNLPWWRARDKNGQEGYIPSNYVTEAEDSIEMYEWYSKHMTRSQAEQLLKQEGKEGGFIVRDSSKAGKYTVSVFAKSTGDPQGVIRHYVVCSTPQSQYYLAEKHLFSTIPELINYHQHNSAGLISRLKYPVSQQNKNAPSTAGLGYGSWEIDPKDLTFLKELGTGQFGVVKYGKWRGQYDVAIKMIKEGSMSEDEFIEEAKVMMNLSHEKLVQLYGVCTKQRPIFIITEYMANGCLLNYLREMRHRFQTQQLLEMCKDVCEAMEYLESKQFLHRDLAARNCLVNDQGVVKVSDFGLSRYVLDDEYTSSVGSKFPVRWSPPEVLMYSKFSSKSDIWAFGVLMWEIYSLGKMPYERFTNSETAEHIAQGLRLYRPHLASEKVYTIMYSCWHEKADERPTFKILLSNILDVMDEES
T2 sequence (Q06187 whole entry C481S): as the sequence (Q06187 whole entry) above, with C481S counted along it

Compound | IC50 (WT BTK [1]) [nM] | Recovery after 24 h dialysis (WT BTK [2]) [%] | Conclusion (WT BTK) (WT BTK [2]) | other results
C=CC(=O)Nc1cc(Nc2nc(-c3ccnc(N4CCc5ccncc5C4=O)c3CO)cn(C)c2=O)ccc1N1CCN(C2COC2)C[C@@H]1C [Example 32, N-[5-([6-[3-(hydroxymethyl)-2-(1-oxo-3,4-dihydro-2,7-naphthyridin-2-yl)pyridin-4-yl]-4-methyl-3-oxopyrazin-2-yl]amino)-2-[(2S)-2-methyl-4-(oxetan-3-yl)piperazin-1-yl]phenyl]prop-2-enamide] | > 100 | – | – | –
C=CC(=O)Nc1cc(Nc2nc(-c3ccnc(N4CCn5c(cc6c5CC(C)(C)C6)C4=O)c3CO)cn(C)c2=O)ccc1N1CCN(C2CCOCC2)C[C@@H]1C [Example 22, N-(5-[[6-(2-[4,4-dimethyl-9-oxo-1,10-diazatricyclo[6.4.0.0^[2,6]]dodeca-2(6),7-dien-10-yl]-3-(hydroxymethyl)pyridin-4-yl)-4-methyl-3-oxopyrazin-2-yl]amino]-2-[(2S)-2-methyl-4-(oxan-4-yl)piperazin-1-yl]phenyl)prop-2-enamide] | – | ~1 | Irreversible/covalent inhibition | Tumor volume (REC-1 xenograft; [7]): 450 mm^3; Tumor volume (REC-1 xenograft; 12.5 mg/kg po, day 28 of the study): 201 mm^3; Tumor volume (REC-1 xenograft; 25 mg/kg po, day 28 of the study): 58 mm^3; Tumor volume (REC-1 xenograft; [8]): 56 mm^3; efficacy compared with Acalabrutinib (REC-1 xenograft; REC-1 xenograft, 10 mg/kg, day 26 of the study): better efficacy than Acalabrutinib; reduction of tumor growth (REC-1 xenograft; REC-1 xenograft, 12.5-50 mg/kg, day 28 of the study): dose-dependent reduction of tumor growth
CC#CC(=O)N1CCC[C@H]1c1nc(-c2ccc(C(=O)Nc3ccccn3)cc2)c2c(N)nccn12 [ACP-196, Acalabrutinib, reference compound] | – | – | – | Tumor volume (REC-1 xenograft; [7]): 672 mm^3; Tumor volume (REC-1 xenograft; [8]): 108 mm^3
C=CC(=O)Nc1cc(Nc2nc(-c3ccnc(N4CCn5c(cc6c5CC(C)(C)C6)C4=O)c3CO)cn(C)c2=O)ccc1N1CCN(C)CC1 [Example 2, N-(5-((6-(2-(7,7-dimethyl-1-oxo-1,3,4,6,7,8-hexahydro-2H-cyclopenta[4,5]pyrrolo[1,2-a]pyrazin-2-yl)-3-(hydroxymethyl)pyridin-4-yl)-4-methyl-3-oxo-3,4-dihydropyrazin-2-yl)amino)-2-(4-methylpiperazin-1-yl)phenyl)acrylamide] | – | – | irreversible inhibitors; also recorded: Irreversible/covalent inhibition | Mode of binding to C481S BTK (C481S BTK [3]): reversibly bind
C=CC(=O)Nc1cc(Nc2nc(-c3ccnc(N4CCn5c(cc6c5CC(C)(C)C6)C4=O)c3C(F)(F)F)cn(C)c2=O)ccc1N1CCN(C2COC2)C[C@@H]1C [Example 28, (S)—N-(5-((6-(2-(7,7-dimethyl-1-oxo-1,3,4,6,7,8-hexahydro-2H-cyclopenta[4,5]pyrrolo[1,2-a]pyrazin-2-yl)-3-(trifluoromethyl)pyridin-4-yl)-4-methyl-3-oxo-3,4-dihydropyrazin-2-yl)amino)-2-(2-methyl-4-(oxetan-3-yl)piperazin-1-yl)phenyl)acrylamide] | > 100 | – | – | IC50 (C481S BTK [4]): > 1000 nM
C=CC(=O)Nc1cc(Nc2nc(-c3ccnc(N4CCc5cccnc5C4=O)c3CO)cn(C)c2=O)ccc1N1CCN(C2COC2)C[C@@H]1C [Example 33, N-[5-([6-[3-(hydroxymethyl)-2-(8-oxo-5,6-dihydro-1,7-naphthyridin-7-yl)pyridin-4-yl]-4-methyl-3-oxopyrazin-2-yl]amino)-2-[(2S)-2-methyl-4-(oxetan-3-yl)piperazin-1-yl]phenyl]prop-2-enamide] | > 100 | – | – | –
C=CC(=O)Nc1cc(Nc2nc(-c3ccnc(N4CCc5c(sc6c5CCCC6)C4=O)c3CO)cn(C)c2=O)ccc1N1CCN(C2COC2)C[C@@H]1C [Example 36, N-[5-([6-[3-(hydroxymethyl)-2-[6-oxo-8-thia-5-azatricyclo[7.4.0.0 ^[2,7]]trideca-1(9),2(7)-dien-5-yl]pyridin-4-yl]-4-methyl-3-oxopyrazin-2-yl]amino)-2-[(2S)-2-methyl-4-(oxetan-3-yl)piperazin-1-yl]phenyl]prop-2-enamide] | – | ~1 | Irreversible/covalent inhibition | –
C=CC(=O)Nc1cc(Nc2nc(-c3ccnc(N4CCn5c(cc6c5CC(C)(C)C6)C4=O)c3CO)cn(C)c2=O)ccc1C1CN(C2COC2)CC(=O)N1C (stereo not drawn) [Example 42, N-(5-[[6-(2-[4,4-dimethyl-9-oxo-1,10-diazatricyclo[6.4.0.0^[2,6]]dodeca-2(6),7-dien-10-yl]-3-(hydroxymethyl)pyri-din-4-yl)-4-methyl-3-oxopyrazin-2-yl]amino]-2-[1-methyl-4-(oxetan-3-yl)-6-oxopiperazin-2-yl]phenyl)prop-2-enamide] | – | ~1 | Irreversible/covalent inhibition | –
C=CC(=O)Nc1cc(Nc2nc(-c3ccnc(N4CCc5ncccc5C4=O)c3CO)cn(C)c2=O)ccc1N1CCN(C2COC2)C[C@@H]1C [Example 31, N-[5-([6-[3-(hydroxymethyl)-2-(5-oxo-7,8-dihydro-1,6-naphthyridin-6-yl)pyridin-4-yl]-4-methyl-3-oxopyrazin-2-yl]amino)-2-[(2S)-2-methyl-4-(oxetan-3-yl)piperazin-1-yl]phenyl]prop-2-enamide] | > 100 | – | – | –
C=CC(=O)Nc1cc(Nc2nc(-c3ccnc(N4CCn5c(cc6c5CC(C)(C)C6)C4=O)c3CO)cn(C)c2=O)ccc1N1CCN(C2CCC(F)(F)CC2)C[C@@H]1C [Example 23, N-[2-[(2S)-4-(4,4-difluorocyclohexyl)-2-methylpiperazin-1-yl]-5-[[6-(2-[4,4-dimethyl-9-oxo-1,10-diazatricyclo[6.4.0.0^[2,6]]dodeca-2(6),7-dien-10-yl]-3-(hydroxymethyl)pyridin-4-yl)-4-methyl-3-oxopyrazin-2-yl]amino]phenyl]prop-2-enamide] | – | ~1 | Irreversible/covalent inhibition | –
C=CC(=O)Nc1cc(Nc2nc(-c3ccnc(N4CCc5c(sc6c5CC(C)(C)C6)C4=O)c3CO)cn(C)c2=O)ccc1N1CCN(C2COC2)C[C@@H]1C [Example 34, N-(5-[[6-(2-[4,4-dimethyl-9-oxo-7-thia-10-azatricyclo[6.4.0.0^[2,6]]dodeca-1(8),2(6)-dien-10-yl]-3-(hydroxymethyl)pyridin-4-yl)-4-methyl-3-oxopyrazin-2-yl]amino]-2-[(2S)-2-methyl-4-(oxetan-3-yl)piperazin-1-yl]phenyl)prop-2-enamide] | 0.073 | ~1 | Irreversible/covalent inhibition | IC50 (C481S BTK [4]): 0.46 nM
C[C@H]1CN(C2COC2)CCN1c1ccc(Nc2cc(-c3ccnc(N4CCn5c(cc6c5CC(C)(C)C6)C4=O)c3CO)cn(C)c2=O)nc1 [GDC-0853, reference compound] | – | – | reversible WT BTK inhibitor | pancreatic toxicity [5]: leads to pancreatic toxicity; tolerability [6]: well-tolerated
